According to ChEMBL document CHEMBL3112408, “1,2,3-triazole-, arylamino- and thio-substituted 1,4-naphthoquinones: potent antitumor activity, electrochemical aspects, and bioisosteric replacement of C-ring-modified lapachones” (Bioorg Med Chem, 2014):
pIC50: −log10 of the molar value.

Tests used:
[1] = Cytotoxicity against human HCT8 cells assessed as cell viability after 72 hrs by MTT assay; format: functional, cell-based; conditions: HCT-8, 72 h
OVCAR-8 = experiment: Cytotoxicity against human OVCAR8 cells assessed as cell viability after 72 hrs by MTT assay; format: functional, cell-based; conditions: OVCAR-8, 72 h
L929 = experiment: Cytotoxicity against mouse L929 cells assessed as cell viability after 72 hrs by MTT assay; format: ADME, cell-based; conditions: L929, 72 h
HL-60 = experiment: Cytotoxicity against human HL60 cells assessed as cell viability after 72 hrs by MTT assay; format: functional, cell-based; conditions: HL-60, 72 h
MDA-MB-435 = experiment: Cytotoxicity against human MDA-MB-435 cells assessed as cell viability after 72 hrs by MTT assay; format: functional, cell-based; conditions: MDA-MB-435, 72 h
MX1 = experiment: Cytotoxicity against human MX1 cells assessed as cell viability after 72 hrs by MTT assay; format: functional, cell-based; conditions: MX1, 72 h
PC-3 = experiment: Cytotoxicity against human PC3 cells assessed as cell viability after 72 hrs by MTT assay; format: functional, cell-based; conditions: PC-3, 72 h
MCF7 = experiment: Cytotoxicity against human MCF7 cells assessed as cell viability after 72 hrs by MTT assay; format: functional, cell-based; conditions: MCF7, 72 h
HCT-116 = experiment: Cytotoxicity against human HCT116 cells assessed as cell viability after 72 hrs by MTT assay; format: functional, cell-based; conditions: HCT-116, 72 h
V79 = experiment: Cytotoxicity against chinese hamster V79 cells assessed as cell viability after 72 hrs by MTT assay; format: cell-based; conditions: Cricetulus griseus, V79, 72 h
[2] = Cytotoxicity against human Hs578T cells assessed as cell viability after 72 hrs by MTT assay; format: functional, cell-based; conditions: Hs-578T
SF-295 = experiment: Cytotoxicity against human SF295 cells assessed as cell viability after 72 hrs by MTT assay; format: functional, cell-based; conditions: SF-295, 72 h
DU-145 = experiment: Cytotoxicity against human DU145 cells assessed as cell viability after 72 hrs by MTT assay; format: functional, cell-based; conditions: DU-145, 72 h
PBMC = experiment: Cytotoxicity against human PBMC assessed as cell viability after 72 hrs by MTT assay; format: cell-based

SMILES | pIC50 [1] | pIC50 (OVCAR-8) | pIC50 (L929) | pIC50 (HL-60) | pIC50 (MDA-MB-435) | pIC50 (MX1) | pIC50 (PC-3) | pIC50 (MCF7) | pIC50 (HCT-116) | pIC50 (V79) | pIC50 [2] | pIC50 (SF-295) | pIC50 (DU-145) | pIC50 (PBMC)
CCCCCCc1cn(C2C3=C(OC2(C)C)C(=O)c2ccccc2C3=O)nn1 (configuration not stated) | 5.27 | 5.27 | 5.08 | 5.72 | 5.40 | 5.13 | 4.99 | 5.03 | 5.31 | 5.14 | 5.08 | 4.95 | 5.01 | 5.05
O=C1C(Br)=C(NCc2cn(CCCN3C(=O)c4ccccc4C3=O)nn2)C(=O)c2ccccc21 | < 5.05 | < 5.05 | < 5.05 | < 5.05 | < 5.05 | < 5.05 | < 5.05 | < 5.05 | < 5.05 | < 5.05 | < 5.05 | < 5.05 | < 5.05 | < 5.05
CC(=O)OC[C@H]1OC(n2cc(CNC3=CC(=O)c4ccccc4C3=O)nn2)[C@H](OC(C)=O)[C@@H](OC(C)=O)[C@@H]1OC(C)=O (single isomer, unassigned) | < 5.10 | < 5.10 | < 5.10 | < 5.10 | < 5.10 | < 5.10 | < 5.10 | < 5.10 | < 5.10 | < 5.10 | < 5.10 | < 5.10 | < 5.10 | < 5.10
O=C1C=C(NCc2cn(CN3C(=O)c4ccccc4C3=O)nn2)C(=O)c2ccccc21 | < 4.92 | < 4.92 | < 4.92 | < 4.92 | < 4.92 | < 4.92 | < 4.92 | < 4.92 | < 4.92 | < 4.92 | < 4.92 | < 4.92 | < 4.92 | < 4.92
O=C1C=C(NCc2cn(CCCN3C(=O)c4ccccc4C3=O)nn2)C(=O)c2ccccc21 | < 4.96 | < 4.96 | < 4.96 | < 4.96 | < 4.96 | < 4.96 | < 4.96 | < 4.96 | < 4.96 | < 4.96 | < 4.96 | < 4.96 | < 4.96 | < 4.96
CC(=O)OC[C@H]1OC(n2cc(CNC3=C(Br)C(=O)c4ccccc4C3=O)nn2)[C@H](OC(C)=O)[C@@H](OC(C)=O)[C@@H]1OC(C)=O (some centres not stated) | 5.66 | 5.55 | 5.44 | 5.92 | 5.57 | 5.44 | < 5.15 | 5.54 | 5.36 | 5.44 | 5.43 | 5.55 | 5.39 | 5.32
CC1(C)CC(Nc2ccc(I)cc2)C2=C(O1)C(=O)c1ccccc1C2=O (configuration not stated) | < 5.00 | < 5.00 | 5.64 | 5.16 | 5.05 | 4.97 | 5.04 | 5.12 | < 5.00 | 5.59 | 5.04 | 5.04 | 4.97 | 5.49
CC1(C)OC2=C(C(=O)c3ccccc3C2=O)C1n1cc(-c2ccccc2)nn1 (configuration not stated) | 5.04 | 5.14 | 5.08 | 5.36 | 5.31 | 5.23 | 5.24 | 5.16 | 5.08 | 5.12 | 5.24 | 5.46 | 5.33 | 5.10
O=C1C(Br)=C(NCc2cn(-c3cccc([N+](=O)[O-])c3)nn2)C(=O)c2ccccc21 | < 4.96 | < 4.96 | < 4.96 | < 4.96 | < 4.96 | < 4.96 | < 4.96 | < 4.96 | < 4.96 | < 4.96 | < 4.96 | < 4.96 | < 4.96 | < 4.96
CCCCCc1cn(C2CC(C)(C)OC3=C2C(=O)c2ccccc2C3=O)nn1 (configuration not stated) | 5.35 | 5.18 | 5.30 | 5.86 | 5.56 | 5.62 | 5.44 | 5.50 | 5.31 | 5.25 | 5.51 | 5.56 | 5.61 | 5.11
CC1(C)CC(Nc2cccc(Br)c2)C2=C(O1)C(=O)c1ccccc1C2=O (configuration not stated) | < 4.92 | 4.98 | 5.42 | 5.12 | 5.02 | 5.06 | 5.01 | 5.00 | < 4.92 | 5.49 | 4.94 | 5.06 | 4.98 | 5.30
O=C1C(Cl)=C(NCc2cn(CN3C(=O)c4ccccc4C3=O)nn2)C(=O)c2ccccc21 | < 4.96 | < 4.96 | < 4.96 | < 4.96 | < 4.96 | < 4.96 | < 4.96 | < 4.96 | < 4.96 | < 4.96 | < 4.96 | < 4.96 | < 4.96 | < 4.96
O=C1C(Cl)=C(NCc2cn(CCCN3C(=O)c4ccccc4C3=O)nn2)C(=O)c2ccccc21 | < 5.00 | < 5.00 | < 5.00 | < 5.00 | < 5.00 | < 5.00 | < 5.00 | < 5.00 | < 5.00 | < 5.00 | < 5.00 | < 5.00 | < 5.00 | < 5.00
